Publication PMC7503767, “Alkoxyamines Designed as Potential Drugs against Plasmodium and Schistosoma Parasites” (Molecules, 2020)
Where two headings read alike, the source gives them in different places.

Columns and labels:
Adult S. mansoni = experiment: In vitro antischistosomal activity on adult worms; type: cell-based, Schistosoma mansoni; conditions: for Mean (±SD) survival time – Adult S. mansoni / Time for the death of 100% worms: 100 µg/mL; for Mean (±SD) survival time – Adult S. mansoni: observation up to 8 h (Table S1); for Time for the death of 100% worms / S. mansoni Mean Survival Time: adult S. mansoni, observation up to 8 h; for S. mansoni Mean Survival Time: single dose 100 µg/mL
Excerpt: The NMRI strain of Schistosoma mansoni was used for the experimentations. The parasite was maintained on an albino variety of Biomphalaria glabrata from Brazil (intermediate host) and in Golden Hamsters, Mesocricetus auratus (Janvier Labs, Le Genest-Saint-Isle, France). Detailed methods, for mollusk and hamster infections and for parasite recovery, were previously described.
Adult worms were recovered between 42 and 47 days after infection by hepatic perfusion technique. Twenty to fifty adult worms were disposed in 12-well Falcon® plate containing 2 mL of RPMI 1640 (supplemented with L-glutamine and Hepes 25 mM) and stored in an incubator chamber (37 °C; 5% CO2). Drug preparation started with dissolution of the drug in DMSO to give a 100 mg/mL stock solution. The dilution was complemented with Tween 80 and RPMI in order to obtain the following final ratio dilution: RPMI 1640/Tween 80/DMSO, 1000/0.95/3.8, v/v/v. The drug solution was added to Falcon plates that contained adult worms. The S. mansoni cultures were then incubated with each drug at a final concentration of 100 µg/mL. Positive control was carried out with a solution of praziquantel (Merck KGaA, Darmstadt, Germany) at a concentration of 100 µg/mL. Negative control was carried out with the same RPMI 1640/Tween 80/DMSO solution, but without any drug. Each test was performed in duplicate. Every hour, moving worms were counted in order to define the percentage of survivors. Parasites showing no body contractions during a 30 s observation were considered as dead. Observations were extended to 8 h. Mean survival times (± standard deviation) were calculated for each drug using Kaplan–Meier survival analyses.

[1] = system: P. falciparum F32-TEM (artemisinin-sensitive strain); experiment: Standard chemosensitivity assay (SYBR Green I), F32-TEM; type: cell-based, Plasmodium falciparum
Method: (§1) F32-ART5, an artemisinin-resistant strain and F32-TEM, an artemisinin-sensitive strain, were obtained from the parental clone F32-Tanzania, respectively under regular drug pressure cycles of increasing artemisinin concentrations for 5 years and without any artemisinin pressure. After these drug pressure cycles allowing selection of the F32-ART5 strain, regular drug pressures were performed to maintain its phenotype. […] Briefly, parasites were cultured in RPMI 1640 (Fisher Scientific, Waltham, Illkirch-Graffenstaden, France) supplemented with 5% type AB human serum (Etablissement français du Sang, Toulouse, France) and adjusted at a parasitemia of 1% and 2% hematocrit with type O human at 37 °C and 5% CO2. Parasite development was daily monitored by Giemsa staining.
(§2) Briefly, for the determination of IC50 values, the chemosensitivity assay was carried out in 96-well culture plates on D-sorbitol ring-stage synchronized parasites and antiplasmodial activities were evaluated using the SYBR Green I method. Drug testing was performed in triplicates in a dose range of 5 to 7 concentrations. […] Parasites were left to proliferate with the given compounds for 48 h at 37 °C and 5% CO2. After this period, pellets were washed 3 times in sterile PBS prior to putting the plates at −20 °C overnight to lyse all red blood cells. The following day, the plates were thawed at room temperature, 100 µL of each well was transferred into a black 96-well plate to which another 100 µL of 2× PBS-diluted SYBR Green I (Sigma-Aldrich) was added and left to incubate for 2 h at room temperature prior to reading the plates on BioTek FL× 800 Microplate Fluorescence Reader (λexcitation = 485 nm, λemission = 528 nm).
(§3) IC50 values were determined using GraphPad Prism by drawing the curve % inhibition vs. [Drug] and using a four-parameter dose–response curve with the following equation: Y=Bottom+ Top−Bottom/1+x^Hill Slope/IC50Hill Slope

[2] = system: P. falciparum F32-ART5 (artemisinin-resistant strain); experiment: Standard chemosensitivity assay (SYBR Green I), F32-ART5; type: cell-based, Plasmodium falciparum; conditions: ^1 n = 1, ^2 n = 2
Method: as §1, §2, §3

[3] = system: P. falciparum chloroquine-resistant strain FcB1-Columbia; experiment: Antiplasmodial screen at 10 µM and chemosensitivity assay (SYBR Green I), FcB1-Columbia; type: cell-based, Plasmodium falciparum
Vero cells = experiment: Cytotoxicity assay (MTT); conditions: for IC50: read-out: Cytotoxicity Mean IC50, Vero cell lines, 48 h, MTT; for Selectivity Index: ratio cytotoxicity (Vero)/activity on Plasmodium
Method: (§4) Vero cells were cultured in MEM (Dutscher, Brumath, France) supplemented with 10% fetal bovine serum, 1× non-essential amino acids, 100 U/mL, 100 µg/mL penicillin/streptomycin, and 2 mM L-glutamine at 37 °C in a humidified 5% CO2 atmosphere. […] At this time, each well was microscope-examined for detection of possible precipitate formation prior to remove the supernatant by flicking the plate. 100 µL of a 0.5 mg/mL PBS-dissolved MTT tetrazolium (stock solution at 5 mg/mL) was then added to each well [48]. The plates were then incubated for 1 h at 37 °C and 5% CO2 prior to removing the supernatant and adding 100 µL of DMSO. Plates were gently shaken to dissolve formazan crystals resulting from the MTT tetrazolium reduction by living cells and read at 570 nm with BioTek µQuant Microplate Spectrophotometer.

[4] = Homolysis of the NO–C bond measured by EPR
Method: Homolysis rate constants kd’ were measured by EPR and estimated using Equation (1) as reported many times in the literature. Further, Ea and kd were estimated using Equation (2). (1) ln([nitroxide]∞−[nitroxide]t/[nitroxide]∞)=−kd·t (2) Ea=−RT ln([…] kd′ )

Cytotoxicity assay (MTT) = conditions: African green monkey
Method: as §4

[5] = 48 h, ^1 n = 1, ^2 n = 2, read-out: P. falciparum Strains Mean IC50, F32-TEM
[6] = 48 h, read-out: P. falciparum Strains Mean IC50, F32-ART5
[7] = FcB1-Columbia strain, read-out: IC50 on P. falciparum
[8] = Plasmodium falciparum, FCB1, read-out: IC50 on P. falciparum, FcB1-Columbia strain
[9] = read-out: P. falciparum Strains Mean IC50, F32-TEM, 48 h, ^1 n = 1, ^2 n = 2
[10] = read-out: P. falciparum Strains Mean IC50, F32-ART5, 48 h
[11] = Plasmodium falciparum, F32, 48 h, read-out: P. falciparum Strains Mean IC50, F32-TEM, 48 h, ^1 n = 1, ^2 n = 2
[12] = Plasmodium falciparum, F32, 48 h, read-out: P. falciparum Strains Mean IC50, F32-ART5, 48 h
[13] = Cytotoxicity Mean IC50, Vero cell lines, 48 h, MTT

| SMILES | Mean (±SD) survival time – Adult S. mansoni (Adult S. mansoni) | Time for the death of 100% worms (Adult S. mansoni) | S. mansoni Mean Survival Time (Adult S. mansoni) | IC50 [2, 6] | IC50 [3, 7] | IC50 (Vero cells) | Selectivity Index (Vero cells) | IC50 [1, 11] | IC50 [2, 12] | also measured |
| --- | --- | --- | --- | --- | --- | --- | --- | --- | --- | --- |
| CCOP(=O)(OCC)C(N(OC(C)c1ccc2ccc3cccnc3c2n1)C(C)(C)C)C(C)(C)C (centres unmarked) [1J] | 1.1 ± 0.05 h | 2 h | 1.1 ± 0.1 h | 2300 nM | 3100 ± 1100 nM | 6200 ± 1200 nM | – | – | – | IC50 [1, 5]: 2900 nM |
| CCOP(=O)(OCC)C(N(OC(C)c1ccnc2c1ccc1cccnc12)C(C)(C)C)C(C)(C)C (centres unmarked) [1K] | 1.1 ± 0.04 h | 2 h | 1.1 ± 0.0 h | 1600 nM | 1300 ± 300 nM | 1100 ± 700 nM | – | – | – | – |
| CCOP(=O)(OCC)C(N(OC(C)c1cc(-c2ccccn2)nc(-c2ccccn2)c1)C(C)(C)CO)C(C)(C)C (centres unmarked) [2F] | – | – | 2.1 to 2.5 h | – | – | – | 1 | – | – | IC50 ([1]; Plasmodium falciparum, F32, read-out: IC50 on the F32 strains, F32-TEM and F32-ART5 taken together): 400 to 600 nM; IC50 [3, 8]: 200 to 300 nM |
| CCOP(=O)(OCC)C(N(OC(C)c1ccc2ccc3cccnc3c2n1)C(C)(C)CO)C(C)(C)C (centres unmarked) [2J] | 1.0 ± 0.0 h | 1 h | 1.0 ± 0.0 h | 4600 nM | 2500 ± 1500 nM | 17000 ± 6300 nM | – | – | – | IC50 [1, 5]: 5000 nM |
| CC(ON1C(C)(C)CCCC1(C)C)c1ccncc1 (centres unmarked) [9a] | 3.0 ± 0.0 h | 3 h | 3.0 ± 0.0 h | 13000 nM | 8000 ± 3000 nM | 40000 ± 13000 nM | – | – | – | IC50 [1, 5]: 7500 nM |
| CCOP(=O)(OCC)C(N(OC(C)c1cc(-c2ccccn2)nc(-c2ccccn2)c1)C(C)(C)CO)C(C)(C)C (centres unmarked) [(RR/SS)-2F, Diethyl(1-((1-([2,2′:6′,2′′-terpyridin]-4′-yl)ethoxy)(1-hydroxy-2-methylpropan-2-yl)amino)-2,2-dimethylpropyl)phosphonate] | – | – | 2.5 ± 0.2 h | – | – | 700 ± 300 nM | 1 | – | – | IC50 [1, 9]: 500 ± 100 nM; IC50 [2, 10]: 400 ± 100 nM; IC50 ([3]; read-out: IC50 on P. falciparum, FcB1-Columbia strain): 200 nM; activation energy Ea ([4]; MeOH/water 1:1 pH = 7.4): 28.39 kcal/mol; re-estimated homolysis rate constant kd at 120 °C ([4]; MeOH/water 1:1 pH = 7.4): 38.9 10^−3 s^−1; half-lifetime t1/2 at 37 °C ([4]; MeOH/water 1:1 pH = 7.4 (aqueous medium)): 84 h; homolysis rate constant kd′ ([4]; MeOH/water 1:1 pH = 7.4, 81 °C): 7.1 10^−4s^−1; activation energy Ea ([4]; t-BuPh): 28.42 kcal/mol; half-lifetime t1/2 at 37 °C ([4]; t-BuPh): 84 h; re-estimated homolysis rate constant kd at 120 °C ([4]; t-BuPh): 38.4 10^−3 s^−1; homolysis rate constant kd′ ([4]; t-BuPh, 81 °C): 7.0 10^−4s^−1 |
| CCOP(=O)(OCC)C(N(OC(C)c1cc(-c2ccccn2)nc(-c2ccccn2)c1)C(C)(C)C(=O)O)C(C)(C)C (centres unmarked) [(RR/SS)-4F, 2-((1-([2,2′:6′,2′′-Terpyridin]-4′-yl)ethoxy)(1-(diethoxyphosphoryl)-2,2-dimethylpropyl)amino)-2-methylpropanoic acid] | > 8 h | > 8 h | > 8 h | – | – | 8100 nM | 2 | – | – | IC50 [1, 9]: 4600 nM; IC50 [2, 10]: 4600 nM |
| CCOP(=O)(OCC)C(N(OC(C)c1cc(-c2ccccn2)nc(-c2ccccn2)c1)C(C)(C)C=O)C(C)(C)C (centres unmarked) [(RR/SS)-7F, Diethyl(1-((1-([2,2′:6′,2′′-terpyridin]-4′-yl)ethoxy)(2-methyl-1-oxopropan-2-yl)amino)-2,2-dimethylpropyl)phosphonate] | – | 3 h | 2.5 ± 0.1 h | – | – | 1200 ± 1300 nM | 1 | – | – | IC50 [1, 9]: 940 nM; IC50 [2, 10]: 850 nM |
| CCOP(=O)(OCC)C(N(OC(C)c1cc(-c2ccccn2)nc(-c2ccccn2)c1)C(C)(C)C(=O)O)C(C)(C)C (centres unmarked) [(RS/SR)-4F, 2-((1-([2,2′:6′,2′′-Terpyridin]-4′-yl)ethoxy)(1-(diethoxyphosphoryl)-2,2-dimethylpropyl)amino)-2-methylpropanoic acid] | – | 7 h | 5.2 ± 0.2 h | – | – | – | 4 | 2900 nM | 4700 nM | IC50 [3, 8]: 2900 nM; IC50 at 48 h (Cytotoxicity assay (MTT); [13]): 15000 ± 5000 nM |
| CCOP(=O)(OCC)C(N(OC(C)c1cc(-c2ccccn2)nc(-c2ccccn2)c1)C(C)(C)C=O)C(C)(C)C (centres unmarked) [(RS/SR)-7F, Diethyl(1-((1-([2,2′:6′,2′′-terpyridin]-4′-yl)ethoxy)(2-methyl-1-oxopropan-2-yl)amino)-2,2-dimethylpropyl)phosphonate] | – | 3 h | 2.7 ± 0.1 h | – | – | – | 0.6 | 1300 nM | 1400 nM | IC50 at 48 h (Cytotoxicity assay (MTT); [13]): 900 ± 400 nM |
| CCN(CC)CCCC(C)Nc1ccnc2cc(Cl)ccc12 (centres unmarked) [Chloroquine, chloroquine, reference compound] | – | – | – | – | – | – | – | 60 ± 20 nM | 60 ± 30 nM | IC50 ([3]; Plasmodium falciparum, FCB1, read-out: IC50 on P. falciparum): 160 ± 36 nM; IC50 at 48 h (Cytotoxicity assay (MTT)): 190000 ± 56000 nM |
| CCc1cc(-c2ccccn2)nc(-c2ccccn2)c1 [compound 22, 4′-ethyl terpyridine] | > 8 h | > 8 h | >8 h | – | – | – | 22 | 240 nM | 230 nM | IC50 ([3]; Plasmodium falciparum, FcB1-Columbia strain, read-out: IC50 on P. falciparum): 910 ± 60 nM; IC50 at 48 h (Cytotoxicity assay (MTT); Vero cells): 5300 ± 4500 nM |
